Laboratory results as given in EPA's ToxValDB 9.5 (doi:10.2903/j.efsa.2013.3240).
≈ marks a conversion by molar mass, not a printed value.

How the values were obtained:
Apis mellifera = conditions: acute; duration: 48 hours; oral; unspecified; mortality
Bibionidae = conditions: chronic/long-term; duration: 28 days; other
Colinus virginianus = conditions: for NOEL: reproduction developmental, reproduction
Oncorhynchus mykiss = conditions: acute; duration: 96 hours; mortality
Aphidius rhopalosiphi = experiment: LR50; higher = less toxic; conditions: acute; duration: 48 hours; mortality
Typhlodromus pyri = experiment: LR50; higher = less toxic; conditions: acute; duration: 7 days; mortality

Question: Which LD50 (Apis mellifera) does the source give for `FC(F)(F)c1ccc(OCCCOc2c(Cl)cc(OCC=C(Cl)Cl)cc2Cl)nc1` [Pyridalyl] here?
Answer: > 100 µg/piece

Question: And the NOEC (Bibionidae)?
Answer: 12 µg/L

Question: And the LC50 (Colinus virginianus; acute, oral, diet, mortality)?
Answer: 334 mg/kg-day

Question: What about the LD50 (Colinus virginianus; acute, oral, mortality) of the same compound?
Answer: > 2250 mg/kg-day

Question: What about the NOEL (Colinus virginianus; F) of the same compound?
Answer: 11.9 mg/kg-day

Question: What about the NOEL (Colinus virginianus) of the same compound?
Answer: 12.6 mg/kg-day

Question: And the LC50 (Neomysis kadiakensis; acute, duration: 96 hours, mortality)?
Answer: 1 µg/L (≈ 0.00204 µM)

Question: What about the NOEC (Neomysis kadiakensis; chronic/long-term, duration: 28 days, reproduction) of the same compound?
Answer: 0.45 µg/L

Question: And the LC50 (Oncorhynchus mykiss)?
Answer: 0.5 mg/L (≈ 1.02 µM)

Question: What about the LD50 (Rattus norvegicus; acute, oral, mortality) of the same compound?
Answer: > 5000 mg/kg-day

Question: And the NOAEL (Rattus norvegicus; chronic, duration: 2 years, body weight)?
Answer: 3.4 mg/kg-day

Question: And the NOAEL (Rattus norvegicus; reproduction developmental, body weight)?
Answer: 2.8 mg/kg-day

Question: And the NOAEL (Rattus norvegicus; subchronic, duration: 13 weeks, oral, hematological)?
Answer: 5.6 mg/kg-day

Question: What about the LC50 (Tagia sp.; acute, duration: 14 days, mortality) of the same compound?
Answer: > 1000 mg/kg

Question: What about the NOEC (Tagia sp.; chronic/long-term, duration: 56 days, reproduction) of the same compound?
Answer: 63 mg/kg

Question: What about the LR50 (Aphidius rhopalosiphi) of the same compound?
Answer: 458 g/ha

Question: What about the LR50 (Typhlodromus pyri) of the same compound?
Answer: > 600 g/ha
